Results taken from patent US11602570B2, “Compositions and systems for renal function determination” (MediBeacon Inc., priority 2017, dated 2023).

What was measured:
[1] = Clinical study: plasma pharmacokinetics of MB-102 given intravenously to human patients; assay type: in vivo
Experimental: (§1) In a clinical study, 60 human patients were administered MB-102 ((2R,2′R)-2,2′-((3,6-diaminopyrazine-2,5-dicarbonyl)bis(azanediyl))bis(3-hydroxypropanoic acid)) prepared in Example 12) intravenously. Blood and urine were collected in addition to the methods and techniques disclosed herein. Standard pharmacokinetic data was collected and comparison was made between the methods and techniques disclosed herein to Omnipaque® (iohexol), a known contrast agent used for GFR determination.
Shown in FIGS. 3A to 3D are data collected from the 60 human patients tested with MB-102. Plasma pharmacokinetic data was collected and analyzed using methods known in the art and compared to the data measured using the methods and techniques disclosed herein.
FIGS. 3A to 3D illustrate a two compartment pharmacokinetic model for the elimination of MB-102. The model is consistent for patients regardless of their GFR values. FIG. 3A is for patients having normal kidney function having a measured GFR (mGFR) of 120 mL/min. FIG. 3B is for patients having a mGFR of 81 mL/min. FIG. 3C is for patients having a mGFR of 28 mL/min. FIG. 3D is for patients having a mGFR of 25 mL/min. The first compartment in the two compartment model is the vascular to tissue equilibrium while the second compartment illustrates renal excretion only. On average, the time for equilibration is about one hour, and is subject dependent.
Shown in FIG. 6 is the plasma concentration half-life of MB-102 for patients having either normal kidney function, stage 1 renal impairment, stage 2 renal impairment, stage 3 renal impairment, or stage 4 renal impairment.

[2] = Clinical study: 12 hour urine collection, amount recovered and degree of secondary metabolism; assay type: in vivo, human
Experimental: as §1
As part of the clinical 1 study for MB-102, urine was collected from patients for 12 hours to determine the amount recovered and degree of secondary metabolism. […] For patients having normal, stage 1 and stage 2 renal function, 12 hour collection time was sufficient for greater than 99% recovery of MB-102. In view of the pharmacokinetic data and the plasma half-life determination, less than complete collection is readily understood for patients having more serious renal function impairment.

[3] = Stability testing of MB-102, HPLC evaluation; assay type: physicochemical; details: 25° C. and 60% relative humidity
Experimental: Samples of MB-102 were prepared and stored at 25° C. and 60% relative humidity for 24 months. HPLC evaluation of each sample was performed at various time points to assess the stability of the samples.

time for equilibration (vascular to tissue equilibrium) ([1]; human patients, intravenous, on average, subject dependent): about one | average plasma half-life ([1]; normal renal function group): two | plasma half-life ([1]; stage 3 renal impairment): 4 h | MB-102 recovered from urine ([2]; patients having a mGFR value below 60, 12 hours, likewise unmetabolized): a lower percentage was recovered | MB-102 recovered unmetabolized from urine ([2]; patients having an eGFR greater than 60, after 12 hours): greater than 99% | Purity (HPLC) ([3]; 0 months): >99% | Purity (HPLC) ([3]; 6 months): >99% | Purity (HPLC) ([3]; 12 months): 98.9% | Purity (HPLC) ([3]; 18 months): 98.3% | Purity (HPLC) ([3]; 24 months): 97.8%
Compound: Nc1nc(C(=O)N[C@H](CO)C(=O)O)c(N)nc1C(=O)N[C@H](CO)C(=O)O [MB-102, (2R,2′R)-2,2′-((3,6-diaminopyrazine-2,5-dicarbonyl)bis(azanediyl))bis(3-hydroxypropanoic acid)]
